Assay results published in paper PMC9056950, “Synthesis and biochemical evaluation of cephalosporin analogues equipped with chemical tethers” (RSC Advances, 2020).
Values after ≈ are worked out from the molar mass of the structure shown.

Columns and labels:
S. aureus (NCTC 6571) = system: T1, S. aureus (NCTC 6571); set-up: species or system Staphylococcus aureus NCTC 6571; broth microdilution growth, OD600 after 16 h, MIC from GraphPad fit; conditions: 16 h
T1 construct: NCTC 6571
Experimental: Stock solutions of each compound were prepared in 50% DMSO/water at ×100 the final concentration. In a 96-well plate, 2 μL of the test compounds were added to each well. Each plate included the positive control (750 μg mL^−1 chloramphenicol), the negative control (50% DMSO/water) and media only wells. To each test well was then added 198 μL of the required bacteria stock (OD 0.05). E. coli assays were carried out using LB broth, S. aureus were carried out using tryptic soy broth (TSB). Plates were incubated at 37 °C and the OD600 was measured (Epoch 2 Microplate Spectrophotometer, BioTek) every 30 min over a 17 h period. Tests were carried out in triplicate, the background absorbance was removed using reference wells, and the averages were determined. Dose curves were plotting using the OD600 after 16 h growth vs. compound concentration. MICs were defined as the minimum concentration of compound at which no significant growth was observed after 16 h incubation. MIC values were determined using GraphPad Prism (version 8.3.0). The activity of 1–12 was investigated with growth assays against Staphylococcus aureus (NCTC 6571). S. aureus is a virulent Gram-positive pathogen that can cause a wide range of infections in humans.[29,30] Each compound was tested at 400–6 μM concentrations, with lower concentrations tested as required.

PBP4 = molecular target: T2, PBP4 (Bacillus subtilis, UniProt P32959); test: biochemical; set-up: gene pbpE; commercial protein (Generon); protein thermal shift assay, melting temperature change of PBP4; conditions: read-out: Average DTm/°C
T2 sequence (P32959 1-451): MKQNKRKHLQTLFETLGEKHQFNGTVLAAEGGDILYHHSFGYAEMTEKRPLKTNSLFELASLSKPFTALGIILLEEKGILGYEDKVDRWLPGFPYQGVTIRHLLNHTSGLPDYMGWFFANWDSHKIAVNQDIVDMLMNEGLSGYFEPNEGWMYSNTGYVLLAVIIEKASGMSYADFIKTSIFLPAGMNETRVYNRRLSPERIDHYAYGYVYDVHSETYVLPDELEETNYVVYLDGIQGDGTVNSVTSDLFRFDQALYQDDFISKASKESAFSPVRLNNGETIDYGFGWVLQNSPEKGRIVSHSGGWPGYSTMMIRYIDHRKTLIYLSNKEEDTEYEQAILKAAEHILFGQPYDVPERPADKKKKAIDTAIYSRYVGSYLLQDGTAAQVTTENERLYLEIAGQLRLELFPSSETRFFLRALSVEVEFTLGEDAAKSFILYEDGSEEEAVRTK
Experimental: The thermal shift assay was carried out using the Protein Thermal Shift™ assay kit (Applied Biosystems). 3 μM of purified E. coli PBP3 was incubated with the β-lactam analogues at 300 μM concentration in a mixture containing the Protein Thermal Shift™ Dye. The samples were then heated in a StepOnePlus™ Real-Time PCR System from 25 to 95 °C at a rate of 1 °C min^−1. Tests were carried out in triplicate and the averages plotted as the negative first derivative vs. temperature. Reference wells, i.e. solutions consisting only of only PBP3 with dye, PBP3 only, and dye only, were used as controls. Melting temperature (Tm) values were determined with and without each compound, and the change in melting temperature (ΔTm) was obtained, Fig. 2. The thermal shift assay with PBP4 was carried out using the protocol described for PBP3, with the follow deriviatisation: 500 nM of purified Bacillus subtilis PBP4 was incubated with 50 μM of the β-lactam analogues. A thermal shift assay was used to investigate the binding of the cephalexin analogues to the therapeutic target, PBP, in vitro. This assay provides a fast and inexpensive method of detecting a ligand binding to a protein of interest. Briefly, the protein is gradually heated in the presence of a fluorescent dye that binds non-specifically to the hydrophobic surfaces. […]

## CC1(C)S[C@@H]2[C@H](NC(=O)Cc3ccccc3)C(=O)N2[C@H]1C(=O)O [compound 11, penicillin]
S. aureus (NCTC 6571)
  MIC (best-fit): 0.0977 µM (≈ 0.0327 µg/mL)
PBP4
  ΔTm at 50 µM: -0.746 °C
